Test results reported in the Deep4Chem optical property database.
Blank lines part the entries; values can stand above or below the compound they belong to.

Assay: solvent given as SMILES

absorption maximum (in CO): 792 nm
SMILES: CC1(C)C(/C=C/C=C/C=C/C=C2/N(CCC(=O)O)c3ccc4ccccc4c3C2(C)C)=[N+](CCC(=O)O)c2ccc3ccccc3c21

absorption maximum (in CCO): 394 nm
absorption maximum (in ClCCl): 396 nm
SMILES: Clc1ncc(-c2c3ccccc3c(-c3cnc(Cl)nc3)c3ccccc23)cn1

absorption maximum (in ClC(Cl)Cl): 376 nm
SMILES: CN(C)c1ccc(-c2cc(-c3ccc(C#N)cc3)nc(-c3ccccc3)n2)cc1

absorption maximum (in CCO): 358 nm
SMILES: CN(C)c1cc(F)c(C(=O)c2cc(F)c(N(C)C)cc2F)cc1F

absorption maximum (in CCO): 636 nm
absorption maximum (in CO): 633 nm
absorption maximum (in CS(C)=O): 644 nm
absorption maximum (in O): 631 nm
SMILES: CN1/C(=C/C=C(/C=C/C2=[N+](C)c3ccccc3C2(C)C)c2cc(F)cc(F)c2)C(C)(C)c2ccccc21

absorption maximum (in ClC(Cl)Cl): 797 nm
SMILES: CCCCCCCCCCOc1cc(OCCCCCCCCCC)cc(C2=C3C(/C=C/c4ccc(N(C)C)cc4)=C(C#Cc4ccc(C(C)(C)C)cc4)C(/C=C/c4ccc(N(C)C)cc4)=[N+]3[B-](F)(F)n3c(/C=C/c4ccc(N(C)C)cc4)c(C#Cc4ccc(C(C)(C)C)cc4)c(/C=C/c4ccc(N(C)C)cc4)c32)c1

absorption maximum (in ClC(Cl)Cl): 661 nm
SMILES: CCOC(=O)/C(C)=C/C1=C(c2ccc(C)cc2)C2=Nc3c(-c4ccc(C)cc4)c(Br)c(-c4ccc(C)cc4)n3[B-](F)(F)[N+]2=C1c1ccc(C)cc1

absorption maximum (in CC#N): 771 nm
SMILES: CN1\C(=C/C=C/C=C/C2=C3C=CC(c4ccccc4)=[N+]3[B-](F)(F)n3c2ccc3-c2ccccc2)C(C)(C)c2ccccc21

absorption maximum (in CC#N): 362 nm
SMILES: N#Cc1ccc(-n2nc(C#N)c(N3CCCC3)n2)cc1

absorption maximum (in ClC(Cl)Cl): 470 nm
SMILES: C[Si]1(C)O[Si](C)(C)c2cc3cc4cc5c(cc4cc3cc21)C(=O)c1cc2cc3cc4c(cc3cc2cc1C5=O)[Si](C)(C)O[Si]4(C)C

absorption maximum (in O): 780 nm
SMILES: CC1(C)C(/C=C/C=C/C=C/C=C2\N(CCCCS(=O)(=O)[O-])c3ccc4ccccc4c3C2(C)C)=[N+](CCCCS(=O)(=O)[O-])c2ccc3ccccc3c21

absorption maximum (in C1CCOC1): 302 nm
SMILES: c1ccc(/C(=C(\c2ccccc2)c2cc(-c3ccc(-c4ccccc4)cc3)ccc2-c2ccc(-c3ccccc3)cc2)c2cc(-c3ccc(-c4ccccc4)cc3)ccc2-c2ccc(-c3ccccc3)cc2)cc1

absorption maximum (in ClC(Cl)Cl): 700 nm
SMILES: CC1=CC(/C=C/c2ccc(N(C)C)cc2)=[N+]2C1=C(c1ccccc1)c1c(C)cc(/C=C/c3ccc(N(C)C)cc3)n1[B-]2(F)F

absorption maximum (in C1COCCO1): 394 nm
absorption maximum (in CC#N): 395 nm
absorption maximum (in CCCCOCCCC): 398 nm
absorption maximum (in CCOC(C)=O): 395 nm
SMILES: COc1nc(Nc2ccc3cc4ccccc4cc3c2)nc(OC)n1

absorption maximum (in C1CCCCC1): 320 nm
absorption maximum (in CO): 325 nm
SMILES: COc1ccc(/C=C(\C)c2nc3ccccc3o2)cc1

absorption maximum (in CC#N): 366 nm
SMILES: COc1ccc2cc(/C=C/c3ccccc3)c(=O)oc2c1

absorption maximum (in ClCCl): 436 nm
SMILES: CCCCCCCCCCCCN1C(=O)c2c(c3ccc4cc(-c5ccc(C)cc5)c(OC)cc4c3c3c2ccc2cc(-c4ccc(C)cc4)c(OC)cc23)C1=O

absorption maximum (in CC1CCCCC1): 323 nm
absorption maximum (in CC#N): 306 nm
absorption maximum (in CO): 306 nm
SMILES: COC(=O)C(NC(=O)OC(C)(C)C)c1ccc2oc(-c3ccc(OC(=O)c4ccccc4)cc3OC(=O)c3ccccc3)nc2c1 (stereo not given)

absorption maximum (in ClCCl): 427 nm
absorption maximum (in O): 416 nm
SMILES: N#CC(C#N)=Cc1ccc(-c2ccc(O)c(-c3nc4ccccc4s3)c2)s1

absorption maximum (in C1COCCO1): 363 nm
SMILES: CCC1=C(C2=C(C3=C(CC)S(=O)(=O)c4cc(-c5ccc(C(C)=O)s5)ccc43)C(F)(F)C(F)(F)C2(F)F)c2ccc(-c3ccc(C(C)=O)s3)cc2S1(=O)=O

absorption maximum (in CCCCCC): 499 nm
absorption maximum (in CO): 494 nm
absorption maximum (in ClCCl): 498 nm
SMILES: CC1=C2C=CC(C)=[N+]2[B-](F)(F)n2cccc21

absorption maximum (in ClC(Cl)Cl): 318 nm
SMILES: N#CCc1ccccc1-c1cc2ccccc2oc1=O

Continued, compound first:

SMILES: CC(C)(C)c1ccc(-c2nc3c4ccc(-c5ccccc5)cc4c4cc(-c5ccccc5)ccc4c3n2-c2ccc(C(C)(C)C)cc2)cc1
absorption maximum (in C1CCOC1): 331 nm
absorption maximum (in C1COCCO1): 333 nm
absorption maximum (in CC#N): 329 nm
absorption maximum (in CCCCCC): 331 nm
absorption maximum (in CCCCOCCCC): 331 nm
absorption maximum (in CCN(CC)CC): 332 nm
absorption maximum (in CCOC(C)=O): 329 nm
absorption maximum (in CCOCC): 330 nm
absorption maximum (in CN(C)C=O): 331 nm
absorption maximum (in Cc1ccccc1): 333 nm
absorption maximum (in ClC=C(Cl)Cl): 332 nm
absorption maximum (in ClCCl): 330 nm

SMILES: FC(F)(F)c1cc2n(n1)[B-]1(c3ccccc3Oc3ccccc31)[n+]1ccc3ccccc3c1-2
absorption maximum (in C1CCCCC1): 375 nm
absorption maximum (in Cc1ccccc1): 378 nm
absorption maximum (in ClCCl): 372 nm

SMILES: C(=C\c1nc2ccccc2[nH]1)/c1ccc(-c2nc3c4cccnc4c4ncccc4c3[nH]2)cc1
absorption maximum (in C1CCOC1): 381 nm
absorption maximum (in CC#N): 376 nm
absorption maximum (in CO): 375 nm
absorption maximum (in ClCCl): 382 nm

SMILES: CN1c2ccccc2C(O)(c2ccccc2)c2cc([N+](=O)[O-])ccc21 (stereo not given)
absorption maximum (in C1CCOC1): 392.4 nm
absorption maximum (in CC#N): 396.9 nm
absorption maximum (in CCO): 393.7 nm
absorption maximum (in CO): 396 nm
absorption maximum (in CS(C)=O): 410 nm
absorption maximum (in Cc1ccccc1): 381.5 nm

SMILES: CCN1\C(=C/C=C/C=C/C2=[N+](CC)c3ccc4cc(Br)ccc4c3C2(C)C)C(C)(C)c2c1ccc1cc(Br)ccc21
absorption maximum (in C1CCOC1): 683 nm
absorption maximum (in CC#N): 680 nm
absorption maximum (in CC(C)=O): 682 nm
absorption maximum (in CCO): 685 nm
absorption maximum (in CN(C)C=O): 686 nm
absorption maximum (in CO): 681 nm
absorption maximum (in CS(C)=O): 689 nm
absorption maximum (in ClCCl): 697 nm

SMILES: COc1ccc2c(c1)c1cc(OC)ccc1n2-c1ccc(S(=O)(=O)c2ccc(-n3c4ccc(OC)cc4c4cc(OC)ccc43)cc2)cc1
absorption maximum (in Cc1ccccc1): 369.69 nm

SMILES: Nc1nc2ccc(F)cc2[n+]([O-])n1
absorption maximum (in CC#N): 415 nm
absorption maximum (in O): 422 nm

SMILES: c1ccc(-c2cc(-c3ccccc3)cc(-c3ccc4c(c3)C3(c5ccccc5-4)c4ccccc4-c4c3c3c5ccccc5c(-c5cc(-c6ccccc6)cc(-c6ccccc6)c5)cc3c3ccccc43)c2)cc1 (stereo not given)
absorption maximum (in C1CCOC1): 387 nm

SMILES: CC1=C(C(C)(C)C)C(C)=[N+]2C1=C(C)c1c(C)c(C(C)(C)C)c(C)n1[B-]2(F)F
absorption maximum (in C1CCCCC1): 529 nm
absorption maximum (in C1CCOC1): 525.1 nm
absorption maximum (in C1COCCO1): 525.1 nm
absorption maximum (in CC#N): 520.8 nm
absorption maximum (in CC(C)=O): 522.5 nm
absorption maximum (in CC(C)CC(C)(C)C): 527.5 nm
absorption maximum (in CCC(C)C): 527.1 nm
absorption maximum (in CCCC(C)=O): 523.7 nm
absorption maximum (in CCCCCC): 527.5 nm
absorption maximum (in CCCCCCCCO): 527.3 nm
absorption maximum (in CCCCCCO): 526.7 nm
absorption maximum (in CCCCO): 526.1 nm
absorption maximum (in CCCCOC(C)=O): 524.3 nm
absorption maximum (in CCCO): 525.3 nm
absorption maximum (in CCO): 524.3 nm
absorption maximum (in CCOC(C)=O): 523.2 nm
absorption maximum (in CCOCC): 525.1 nm
absorption maximum (in CN(C)C=O): 524 nm
absorption maximum (in CNC=O): 522.3 nm
absorption maximum (in CO): 522.9 nm
absorption maximum (in COC(C)=O): 522.5 nm
absorption maximum (in OCC(F)(F)F): 521.6 nm

SMILES: CC1(C)CC[N+]2=c3c(cc4c(c31)Oc1cc3c(cc1C=4c1ccccc1C(=O)O)C(c1ccccc1C(=O)O)=c1cc4c5c(c1O3)C(C)(C)CC[N+]=5CCC4)CCC2
absorption maximum (in ClC(Cl)Cl): 611 nm

SMILES: C(#Cc1ccc2ncsc2c1)c1ccc(N(c2ccc(C#Cc3ccc4ncsc4c3)cc2)c2ccc(C#Cc3ccc4ncsc4c3)cc2)cc1
absorption maximum (in Cc1ccccc1): 380 nm

SMILES: CC1=N/C(=C\c2ccc(N(C)C)cc2)C(=O)N1C
absorption maximum (in C1CCCCC1): 405 nm
absorption maximum (in C1CCOC1): 419 nm
absorption maximum (in CC#N): 422 nm
absorption maximum (in CO): 435 nm
absorption maximum (in CS(C)=O): 434 nm
absorption maximum (in ClCCl): 428 nm
absorption maximum (in O): 446 nm

SMILES: CC(C)c1cccc(C(C)C)c1N1C(=O)c2cc(Cl)c3c4c(Cl)cc5c6c(cc(Cl)c(c7c(Cl)cc(c2c37)C1=O)c64)C(=O)N(c1c(C(C)C)cccc1C(C)C)C5=O
absorption maximum (in Cc1ccccc1): 523 nm

SMILES: c1ccc(-c2nc(-c3ccccc3)nc(-c3ccc(N4c5ccccc5C5(c6ccccc6-c6ccccc65)c5ccccc54)cc3)n2)cc1
absorption maximum (in Cc1ccccc1): 399.05 nm

SMILES: CC(=O)c1nc(-c2ccc(C)cc2)oc1C
absorption maximum (in CC#N): 271 nm
absorption maximum (in CCCCCC): 272 nm
absorption maximum (in CCO): 271 nm
absorption maximum (in CCOC(C)=O): 273 nm
absorption maximum (in CCOCC): 271 nm
absorption maximum (in ClCCl): 271 nm

SMILES: Cc1c(-c2ccc(N3c4ccccc4C(C)(C)c4ccccc43)cc2)ncnc1-c1ccc(N2c3ccccc3C(C)(C)c3ccccc32)cc1
absorption maximum (in Cc1ccccc1): 367.5 nm

SMILES: N#Cc1ccc2c(c1)CCc1nc(-c3ccc([N+](=O)[O-])cc3)c3c(c1-2)CCc1cc(C#N)ccc1-3
absorption maximum (in C1CCOC1): 331 nm
absorption maximum (in CC#N): 349 nm
absorption maximum (in CCCCCC): 350 nm
absorption maximum (in CCOC(C)=O): 329 nm
absorption maximum (in CO): 333 nm
absorption maximum (in CS(C)=O): 360 nm
absorption maximum (in Cc1ccccc1): 343 nm
absorption maximum (in ClCCl): 345 nm

SMILES: CCCC1=Cc2nc1ccc1[nH]c(c3nc(ccc4[nH]c2cc4CCC)C(CCC)=C3)c(CN(C)C)c1CCC
absorption maximum (in Cc1ccccc1): 643 nm

SMILES: COc1ccc2c(c1)c1ccc3cccc4c5cccc6oc(=O)c2c(c65)c1c34
absorption maximum (in C1CCOC1): 425 nm

SMILES: O=C1C(=c2c(=O)c3c4ccccc4cc4cc5ccccc5c2c43)C(=O)c2ccccc21
absorption maximum (in ClCCl): 518.56 nm

SMILES: CCOc1cc2c(cc1/C=C/C1=CC(=C(C#N)C#N)CC(C)(C)C1)c1ccccc1n2CC
absorption maximum (in C1CCOC1): 476 nm
absorption maximum (in CC#N): 474 nm
absorption maximum (in CCO): 480 nm
absorption maximum (in CCOC(C)=O): 469 nm
absorption maximum (in CN(C)C=O): 487 nm
absorption maximum (in CS(C)=O): 491 nm
absorption maximum (in Cc1ccccc1): 474 nm
absorption maximum (in ClC(Cl)Cl): 480 nm
absorption maximum (in ClCCl): 479 nm

SMILES: CCOC(=O)c1cc(C(=O)OCC)c2ccc(C)cc2n1
absorption maximum (in CCO): 321 nm

SMILES: O=C(O)CCCc1cc(C#Cc2ccccc2)c2ccc3c(C#Cc4ccccc4)cc(C#Cc4ccccc4)c4ccc1c2c34
absorption maximum (in CS(C)=O): 451 nm
absorption maximum (in ClC(Cl)(Cl)Cl): 445 nm
